According to patent publication US8404688B2, “Nitrone compounds, process of preparation thereof, and use thereof in medicament manufacture” (Jinan University, priority 2008, dated 2013):

Key:
cerebral ischemia = conditions: rat 2-h MCA occlusion by intraluminal suture; Ley et al.; cited from earlier work
thrombosis = conditions: rat arterio- and phlebo-thrombosis models; Liu and Sylvester 1990; cited from earlier work
[1] = intravenous injection, rat; Sheu et al. 1997; cited from earlier work
[2] = system: permanent middle cerebral occlusion; conditions: monkeys, Marshall et al. 2001; cited from earlier work
MCA occlusion = conditions: male Wistar rats, 2 hour MCA occlusion, given 1 hour after recirculation; at 48 hours and 7 days; Kuroda et al. 1999; cited from earlier work
Cortical neurons = experiment: Protection of neuronal cells from NMDA excitotoxic damage; assay type: cell-based; conditions: drug 1-1000 μM, NMDA 100 μM, 24 h, FIG. 5
Procedure: Cortical neurons (9×10^4 cells/well) were placed into 96-well cell culture plates, and were incubated at 37° C. for 24 h under 5% CO2. The medium was changed, and the cells were incubated for another 12 h. Drugs at different concentrations 1000 μM, 100 μM, 10 μM, 1 μM) were added, and the cells were incubated at 37° C. for 30 min. NMDA (15 μL) was then added (final concentration of NMDA is 100 μM), and the cells were incubated for 24 h at 37° C. for 24 h under 5% CO2.

MCAo rat stroke model = experiment: Protection of stroke in MCAo rats (infarct area, TTC staining); assay type: in vivo; conditions: TBN 80 mg/kg i.p. 1 h after occlusion; 2 h ischemia, 24 h reperfusion; FIG. 6
Procedure: Female Sprague-Dawley rats (210-240 g) were anesthetized with 10% chloral hydrate (400 mg/kg) i.p. The right common carotid artery (CCA) was carefully exposed. The occipital branch of the external carotid artery (ECA) was coagulated and the internal carotid artery (ICA) was isolated. A poly-L-lysine-coated nylon suture (0.32 mm in diameter) was inserted into the ECA and advanced retrogradely until the bifurcation of the CCA from where it was advanced a distance of approximately 18-20 mm into the ICA to occlude the MCA. A ligature was tied around the ICA, the incisions were closed, and the animal was extubated.
TMP (50 mg/kg), TBN (80 mg/kg), PBN (65 mg/kg), Eda (62 mg/kg) and saline were administered i.p. 1 h after MAC occlusion, respectively. After 2 h of MCA occlusion, the suture was withdrawn to allow reperfusion. After 24 h of reperfusion, the animals were re-anesthetized with 10% chloral hydrate (400 mg/kg) i.p., and were then decapitated. The brain was quickly removed, rinsed with PBS, and stored in a refrigerator at −20° C. until it was frozen. The brain was sliced with a blade at every 2-mm from the frontal pole, and the slices were stained with 2,3,5-triphenyltetrazolium chloride (TTC, 0.5% in normal saline) for 30 min at 37° C. […] The area of infarction was quantified by the Osiris 4 software, and the results were expressed as the percentage of the total brain section area.

thrombus = experiment: Thrombolytic activity in rats (inferior vena cava ligation, dried thrombus weight); assay type: in vivo; conditions: TBN 3.25 mg/kg i.v.; rat; FIG. 7
Procedure: The abdomen was then closed. Drugs were administered 2 h after ligation i.v. via the dorsal tail vein. The abdomen was reopened after […] of ligation. The thrombus was removed and dried at 50° C. for 24 h. The dried thrombus was weighted.

cortical neuronal cells = experiment: Protection of cortical neuronal cells from H2O2-induced oxidative damage (MTT); assay type: cell-based; conditions: cortical neurons, FIG. 4
Procedure: Cortical neurons (9×10^4 cells/well) were placed into 96-well cell culture plates, and were incubated at 37° C. for 24 h under 5% CO2. The medium was changed, and the cells were incubated for another 12 h. Drugs at different concentrations were added, and the cells were incubated at 37° C. for 30 min. Hydrogen peroxide were then added, and the cells were incubated for 24 h at 37° C. for 24 h under 5% CO2. A solution of 3-(4,5-dimethylthiazol-2-ly)-2,5-diphenyl-tetrazoliun bromide (MTT) was added, and the cells were incubated for another 4 h before DMSO was added. After the crystals were completely dissolved (30 min), the absorbance was read at 570 nm with a spectrophotometer (Bio-Rad Model 680, Japan). The results were expressed as the percentage of the control (saline group).

stilbazulenyl nitrone [STAZN]
neurological deficits compared with vehicle controls (cerebral ischemia): improved neurological deficits

Cc1nc(C)c(C)nc1C [TMP, tetramethylpyrazine]
thrombolytic activity (thrombosis): showed thrombolytic activity | prolongation of bleeding time [1]: 1.5 times

CC(C)(C)[N+]([O-])=Cc1ccc(S(=O)(=O)[O-])cc1S(=O)(=O)[O-].[Na+].[Na+] [NXY-059, disodium 4-[(tert-butylimino)methyl]benzene-1,3-disulfonate N-oxide]
reduction of overall amount of brain damage vs saline-treated control [2]: > 50% | infarct volume (MCA occlusion): significantly reduced infarct volume

Cc1nc(C)c(/C=[N+](\[O-])C(C)(C)C)nc1C [TBN, 2-[[(1,1-Dimethylethyl)oxidoimino]methyl]-3,5,6-trimethylpyrazine]
protection of neuronal cells from NMDA toxicity (Cortical neurons): significantly protected | protective effect in MCAo rat stroke model (area of infarction) (MCAo rat stroke model): significant protective effects | thrombolytic activity (dried thrombus weight) (thrombus): significant thrombolytic activity | effectiveness relative to Eda in protecting cortical neuronal cells from H2O2-induced damage (cortical neuronal cells; H2O2, MTT): approximately 10 fold | protection of cortical neuronal cells from H2O2-induced damage, compared with TMP and PBN (cortical neuronal cells; drug 30 min before H2O2, 24 h, MTT): more effective than either TMP or PBN
